Assay results: patent US20250312416A1, “METHOD AND PHARMACEUTICAL COMPOSITION FOR CARTILAGE REGENERATION” (FAR EASTERN MEMORIAL HOSPITAL, priority 2024, published 2025)
“Also recorded” adds a separate entry of the source.

Columns and labels:
UC-MSCs [1] = assay: Real-time PCR of chondrogenic genes in UC-MSCs; format: cell-based; details: day 7 of peptide treatment
Source text: (§1) FIG. 13A provides flowchart illustrating the protocol for peptide treatment and sample collection. […] TGF-beta influenced the expression of chondrogenic genes, including ITGB1 and COMP. […] Treatment with CXCL14/CXCL12 peptides increased GAG content during chondrogenesis in the presence of TGF-beta.
(§2) To further validate the role of CXCL14-P and CXCL12-P in regulating chondrogenesis, we compared their effects on another MSC source, umbilical cord-derived mesenchymal stem cells (UC-MSCs). It is important to note that the chondrogenic induction medium contained TGF-β. During chondrogenesis, we observed that the chondrogenic patterns in UC-MSCs were lower than those in ADSCs (FIG. 12). Subsequently, we assessed the chondrogenic potential of UC-MSCs following stimulation with CXCL14-P and CXCL12-P (FIG. 13A). […] Although the expression of chondrogenic genes (FIG. 13B) and GAG content (FIG. 13C) in UC-MSCs was not as pronounced as in ADSCs, the findings confirm that CXCL14-P and CXCL12-P can robustly stimulate chondrogenesis across different MSC sources.

clinical-grade ADSCs = assay: Real-time PCR of chondrogenic genes in ADSCs; format: cell-based, human
Procedure: Real-time PCR analysis was conducted on day 7 for CXCL12/CXCL14 peptides treated ADSCs, evaluating the expression of COMP, SOX9, COL2A1, ACAN, ITGB1, and SOSTDC1 genes. Cells were harvested, and RNA extraction was performed using a LightCycler® (Roche Applied Science). The fold change in gene expression on the y-axis was calculated relative to the same gene expression in untreated chondrocytes. Statistical analysis was conducted using one-way ANOVA. Significance levels are denoted as follows: * p<0.05, ** p<0.01, *** p<0.001, and **** p<0.0001 for comparisons between PBS treatments and the untreated group.
Real-time PCR analysis was performed on day 7 for ADSCs treated with CXCR4 agonists, assessing the expression of COMP, SOX9, COL2A1, ACAN, ITGB1, CXCL14, and SOSTIC1 genes. Cellular harvest, RNA extraction, and gene expression quantification were conducted using a LightCycler® (Roche Applied Science). The fold change in gene expression on the y-axis was calculated relative to the same gene expression in untreated chondrocytes. Statistical analysis was executed through one-way ANOVA. Significance levels are represented as follows: * p<0.05, ** p<0.01, *** p<0.001, and **** p<0.0001, indicating the significance of comparisons between PBS treatments and the untreated group.
Alcian blue staining was used to assess the chondrogenic differentiation of ADSC pellets. […] Treatment with CXCL14-PM1, CXCL14-PM2, CXCL14-PM3, and CXCR4-PM1 was sufficient to enhance the expression of chondrogenic genes in ADSCs. On day 7, real-time PCR was performed to analyze the expression of key chondrogenic markers, including SOX9, COL2A1, COMP, ACAN, ITGB1, CXCL14, and CXCR4, in ADSCs treated with these modified peptides. ADSCs were exposed to distinct peptide modifications derived from CXCL12, CXCL14, and CXCR4 at a concentration of 10 ng for a one-day treatment, after which the medium was replaced with fresh peptide-free medium. At the end of the treatment period, RNA was extracted to evaluate the expression levels of chondrogenesis-related cytokine genes. Gene expression quantification was performed using a LightCycler system (Roche Applied Science), and fold changes were calculated relative to untreated control ADSCs. […] FIG. 16(D) provides a summary of the results for alanine substitution with positively or negatively charged amino acids in CXCL12, CXCL14, and CXCR4 peptides.
ADSCs were treated with CXCL14-P, CXCL14-P1, or CXCL14-P2, respectively, at a concentration of 10 ng for 24 hours, after which the medium was replaced with fresh peptide-free medium. On day 7, total RNA was extracted, and real-time PCR analysis was performed to assess the expression levels of key chondrogenic markers, including ACAN, COL2A1, SOX9, and COMP. Gene expression levels were quantified using a LightCycler system (Roche Applied Science), with fold changes calculated relative to untreated control ADSCs. […] Immunofluorescence staining was performed to detect Collagen Type II, SOX9, COMP, and nuclei (Hoechst 33342) in 3D ADSC spheroids (middle panel). […]
Human IPFP-MSCs and ADSCs were expanded in Dulbecco's Modified Eagle's Medium (DMEM, Gibco, cat. no 2145484) with 10% FBS under a 37° C., 5% CO2 atmosphere. MSCs collected and cell extractions were determined gene expression levels of cytokines and chondrogenic markers using a LightCycler® (Roche Applied Science). The fold change in gene expression on the y-axis was calculated based on untreated cell gene expression.

UC-MSCs [2] = assay: Alcian blue staining of chondrogenic pellets (GAG), UC-MSCs; format: cell-based; details: in the presence of TGF-beta
Source text: as §1, §2

ITTKSVSRYRGQEH [CXCL14-P]
chondrogenic gene expression (COMP, SOX9, COL2A1, ACAN, ITGB1) (UC-MSCs [1]): significantly upregulated
expression of chondrogenic genes (COMP, SOX9, COL2A1, ACAN, ITGB1, SOSTDC1) (clinical-grade ADSCs; day 7, peptides compared to CXCL12/CXCL14 proteins, listed as CXCL14 peptide): significantly upregulated; also recorded: greater ability
expression of chondrogenic genes (COMP, SOX9, COL2A1, ACAN, ITGB1) (clinical-grade ADSCs; day 7 of treatment with peptide): significantly upregulated
chondrogenic genes (clinical-grade ADSCs; in the absence of TGF-β): evident
expression of chondrogenic genes ITGB1 and COMP (clinical-grade ADSCs; in the presence of TGF-β, day 7): significantly enhanced
GAG content (Alcian blue) (UC-MSCs [2]): increased
